Assay results taken from patent US20240109861A1, “SERIES OF PIPERIDINE-SUBSTITUTED BENZOIC ACID COMPOUNDS, AND USE THEREOF” (priority 2020, published 2024).
pIC50: −log10 of the molar value. Marks after values point to notes of the source that are not given here.

Assays:
[1] = Pharmacokinetic study in rats; assay type: in vivo, male Wistar Han rats
Protocol: Experimental objective: To investigate in vivo plasma pharmacokinetics of the compounds of the present disclosure after a single intravenous injection and intragastric administration in male Wistar Han rats.
Experimental procedure: injection administration (IV): a dose of 1 mpk (vehicle: 30% PEG300/10% Cremphor EL/60% PBS (1×pH 7.4)); oral administration (PO): a dose of 5 mpk or 30 mpk (vehicle: 30% PEG300/10% Cremphor EL/60% PBS (1×pH 7.4))
(§1) Sample collection: About 0.3 mL of blood samples were collected by puncture of the jugular vein in experimental animals at each time point, and the actual blood collection time was recorded. All blood samples were added to 1.5 mL commercial EDTA-K2 anticoagulant tubes (supplied by Jiangsu Kangjian Medical Apparatus Co., Ltd.). After collection, the blood sample was centrifuged at 4° C., 3200 g for 10 min to aspirate the supernatant plasma, which was put in dry ice immediately, and stored in a refrigerator at −80° C. for LC-MS/MS analysis.
Data analysis: Plasma concentrations were processed using the non-compartmental model of Phoenix WinNonlin 6.3 pharmacokinetic software, and pharmacokinetic parameters Cl, Cmax, T1/2, and AUC0-last were calculated using the linear/log trapezoidal method.

[2] = biological target: alternative complement pathway in human serum; assay: Wieslab alternative complement pathway activation inhibition (enzyme activity test); assay type: biochemical; conditions: human serum diluted 1:23, Wieslab alternative pathway kit; read-out: AP MAC IC50
Protocol: The objective of this experiment is to determine the inhibitory activity of the compounds of the present disclosure on the alternative complement pathway in human serum by using the Wieslab® complement system alternative pathway kit.
Serum was diluted with diluent (1:23). Drugs were added to the diluted serum with 8 concentration gradients of up to 10 mM or 50 mM in a 5-fold serial dilution. […] The mixture of compound and serum was added to a 96-well plate (100 μL/well) provided in the kit, and activated at 37° C. for 1 hour. The plate was washed three times with wash buffer. The plate was added with detection antibody (100 μL) provided in the kit and incubated at room temperature for 30 min. The plate was washed three times with wash buffer. The plate was added with substrate (100 μL) and incubated at room temperature for 30 min.

[3] = test system: LPS-induced complement activation (plasma C3d protein levels); assay: In vivo PD model of LPS-induced complement activation in mice; design: species or system female C57BL/6J mice; conditions: for inhibition of C3d levels (LPS-induced complement activation): LPS i.p., plasma Western blot, FIG. 1; for inhibitory effect compared with LNP023: LPS-induced complement activation, C3d levels
Protocol: Experimental objective: To investigate the inhibitory effect of the compounds of the present disclosure on complement activation in mice induced by LPS stimulation. Experimental animals: female C57BL/6J mice, 7 to 9 weeks old, weighing 17 to 23 g; supplier: Shanghai Sipple-Bikai Laboratory Animal Co., Ltd.
Experimental procedure: 100 μg of lipopolysaccharide (LPS) in Salmonella typhimurium (Sigma) dissolved in 100 μL of sterile PBS was intraperitoneally injected to induce complement activation in mice. Negative control animals were intraperitoneally injected 100 μL of sterile PBS, and administered alone by tube feeding (PO). Positive control animals were intraperitoneally injected LPS and PO drug vehicles (0.5% (w/v) methyl cellulose and 0.5% (v/v) Tween 80). The time points for administration and plasma collection are as follows:
Sample collection: 0.3 mL of blood samples were collected from the orbital venous plexus. All blood samples were added to 1.5 mL commercial EDTA-K2 anticoagulant tubes (supplied by Jiangsu Kangjian Medical Apparatus Co., Ltd.). After collection, within half an hour, the blood sample was centrifuged at 4° C., 3000 g for 10 min to aspirate the supernatant plasma, which was put in dry ice immediately, and stored in a refrigerator at −80° C. for Western blot analysis of downstream C3d protein levels after complement activation.

[4] = Pharmacokinetic study in mice; assay type: in vivo, male C57BL/6J mice
Protocol: Experimental objective: To investigate in vivo plasma pharmacokinetics of the compounds of the present disclosure after a single intravenous injection and intragastric administration in male C57BL/6J mice.
Experimental animals: male C57BL/6J mice, 7 to 9 weeks old, weighing 17 to 23 g; supplier: Shanghai Sipple-Bikai Laboratory Animal Co., Ltd.
as §1, with “0.03” for “About 0.3”, “saphenous” for “jugular”, “collection, within half an hour,” for “collection,”, “3000” for “3200”
Data analysis: Plasma concentrations were processed using the non-compartmental model of WinNonlinTM Version 6.3 (Pharsight, Mountain View, CA) pharmacokinetic software, and pharmacokinetic parameters Cl, T1/2, Cmax, and AUC0-last were calculated using the linear/log trapezoidal method.

[5] = test system: Sheep Anti-Rat Fx1A Serum induced Heymann nephritis; assay: In vivo pharmacodynamic model of passive Heymann nephritis in rats; design: species or system male SD rats; conditions: intragastric twice a day for 14 days, FIG. 2
Excerpt: Experimental objective: To investigate the ability of the compounds of the present disclosure to improve renal function of Sheep Anti-Rat Fx1A Serum induced Heymann nephritis in rats, including the evaluation of reducing proteinuria level and improving renal tissue damage.
Experimental animals: male SD rats, 7 to 10 weeks old, weighing 200 to 300 g; supplier: Beijing Vital River Laboratory Animal Technology Co., Ltd.
Urine was collected from rats on D-2 before administration. […]
Kidney sample collection: All animals were euthanized with CO2 inhalation anesthesia on Day 15, and bilateral kidneys were collected. […] Urine total protein (uTP) in rats was detected without dilution; if exceeding the upper detection limit, it was 10-fold diluted (10 μL of sample+90 μL of saline (0.9% saline)) first (Decrease mode); if still exceeding the upper detection limit after 10-fold dilution, it was 100-fold diluted (2 μL of sample+198 μL of saline (0.9% saline)) (Increase mode). Data were read by the analytical instrument HITACHI LST008 AS (P). • (2) Kidney pathological scoring: The degree of drug damage to rat kidneys (paraffin sections) was analyzed by HE staining. […]

[6] = male, Wistar Han, rat, plasma, 1 mg/kg, IV (1 mpk)
[7] = male, C57BL/6J, mouse, plasma, 1 mg/kg, IV (1 mpk)
[8] = male, C57BL/6J, mouse, plasma, 10 mg/kg, PO (10 mpk)

SMILES	pIC50 [2]	inhibition of C3d levels (LPS-induced complement activation) [3]	inhibitory effect compared with LNP023 [3]	Cl ([4]; IV (1 mpk))	T1/2 ([4]; IV (1 mpk))	AUC0-last ([4]; PO (10 mpk))	Cmax ([4]; PO (10 mpk))	also measured
COc1cc(C)c2[nH]ccc2c1CN1CC[C@@H](C2CC2)C[C@H]1c1ccc(C(=O)O)cc1 [Compound 3C]	7.29	significantly inhibit C3d levels	better inhibitory effect than that of LNP023	11.1 mL/min/kg	3.4 h	23.3 µM·h	6320 nM	Cl ([1]; IV (1 mpk)): 4.6 mL/min/kg; T1/2 ([1]; IV (1 mpk)): 3.8 h; F % ([1]; PO (5 mpk or 30 mpk)): 62%; Cmax ([1]; PO (5 mpk or 30 mpk), dose-normalized data): 838 nM; AUC0-last ([1]; PO, a dose of 5 mpk, dose-normalized data): 5399^a nM · h
CCO[C@H]1CCN(Cc2c(OC)cc(C)c3[nH]ccc23)[C@H](c2ccc(C(=O)O)cc2)C1 [LNP023, reference compound]	–	significantly inhibit C3d levels	–	–	–	–	–	clearance [1, 6]: 6.7 mL/min/kg; half-life [1, 6]: 1.2 h; AUC(0-t) ([1]; male, Wistar Han, rat, plasma, 30 mg/kg, PO, a dose of 30 mpk, dose-normalized data): 2.19 µM·h; bioavailability ([1]; male, Wistar Han, rat, plasma, PO (5 mpk or 30 mpk)): 38%; Cmax ([1]; male, Wistar Han, rat, plasma, PO (5 mpk or 30 mpk), dose-normalized data): 379 nM; urinary protein levels and renal function [5]: significantly inhibit urinary protein levels in rats and improve renal function in rats; clearance [4, 7]: 18.4 mL/min/kg; half-life [4, 7]: 1.3 h; AUC(0-t) [4, 8]: 9.3 µM·h; Cmax [4, 8]: 2500 nM
COc1cc(C)c2[nH]ccc2c1CN1CC[C@H](C2CC2)C[C@H]1c1ccc(C(=O)O)cc1 [Compound 3A]	7.63	significantly inhibit C3d levels	better inhibitory effect than that of LNP023	12.0 mL/min/kg	3.9 h	11.156 µM·h	4770 nM	–
